Laboratory results as given in article PMC7681098 (Theranostics, 2021).
Read-outs that look alike come from different tables or passages of the source.

How the values were obtained:
[1] = target: T1, FLT4/VEGFR3 (Homo sapiens, UniProt P35916); test: Kinase inhibition assay (Reaction Biology); assay type: biochemical
T1 construct: purchased Reaction Biology Corporation (PA, USA)

[2] = system: BaF3 cells transfected with FLT3-ITD-N676D and FLT3-ITD-F691L; test: Subcutaneous xenograft with transfected BaF3 cells; assay type: in vivo, BALB/c nude mice; details: 10 mg/kg every other day for 16 days
Protocol: (§1) Data were shown as mean±SD. […] Data were shown as mean±SD. (C) An engrafted tumor model was used to evaluate in vivo antitumor activity. The NOD/SCID mice were intravenously inoculated with MV4-11 cells. […] Log-rank testing was used to compare survival curves among treatment groups. […] (D) Apoptotic assays in engraft model were evaluated by TUNEL assay and cell proliferative activity was measured by Ki67 assay. Images were acquired at ×40 magnification. (E) BALB/c nude mice were subcutaneously inoculated with MV4-11 cells (5×10^6) and bodyweight of each mouse was recorded every other day. (F) Representative photo of tumors from BALB/c nude mice which were inoculated with MV4-11 cells. (G) BALB/c nude mice were subcutaneously inoculated with BaF3 cells bearing FLT3-ITD-N676D (n=6) and FLT3-ITD-F691L (n=6) respectively. […] (H) BALB/c mice were intravenously inoculated with cells used in (G). […] Log-rank testing was used to compare survival curves among treatment groups. […] (I) Representative photos of spleens dissected from mice in (H) inoculated with BaF3 cells bearing FLT-3-ITD-F691L.
Cells were injected into the tail vein of BALB/c nude mice and allowed to engraft for 5 days. […] This schedule was repeated for 8 cycles.

[3] = target: T2, c-Kit (Homo sapiens, UniProt P10721); test: Kinase inhibition assay (Reaction Biology); assay type: biochemical
T2 construct: purchased Reaction Biology Corporation (PA, USA)

[4] = system: MV4-11 cells and MOLM13 cells; test: Subcutaneous xenograft model; assay type: in vivo, BALB/c nude mice
Protocol: According to previously described, [31], BALB/c nude mice were subcutaneously inoculated with MV4-11 cells (5×10^6) and MOLM13 cells (5×10^6). […] Tumor volume and body weight were measured with the caliper twice weekly. Tumor volumes were calculated based on: tumor volume=length×width^2/2.
LT-171-861 was administered every two days in xenograft mice. […] Tumor-eliminated mice were monitored for an additional 20 days after dosing was halted.
as §1

[5] = system: THP-1; test: Cell proliferation MTT assay; assay type: cell-based; details: Homo sapiens, 72 h, wild-type FLT3, read-out: Human leukemia cell line IC50 THP-1
Protocol: (§2) The conditional medium (CM) was prepared from the supernatant of HS-5 cell culture for 5 days under normal culture conditions. At the indicated time point, cell viability was evaluated by MTT assay.

[6] = system: MOLM13; test: Cell proliferation MTT assay; assay type: cell-based; details: Homo sapiens, MOLM-13, 72 h, read-out: Human leukemia cell line IC50 MOLM13
Protocol: as §2

[7] = system: MV4-11; test: Cell proliferation MTT assay; assay type: cell-based; details: Homo sapiens, 72 h, read-out: Human leukemia cell line IC50 MV4-11
Protocol: as §2

[8] = system: U937; test: Cell proliferation MTT assay; assay type: cell-based; details: Homo sapiens, U-937, 72 h, wild-type FLT3, read-out: Human leukemia cell line IC50 U937
Protocol: as §2

[9] = target: T3, JAK1 (Homo sapiens, UniProt P23458); test: Kinase inhibition assay (Reaction Biology); assay type: biochemical
T3 construct: purchased Reaction Biology Corporation (PA, USA)

[10] = system: FLT3; test: PD study in subcutaneous MV4-11 xenograft mice; assay type: in vivo, BALB/c nude mice; details: single dose 10 mg/kg intravenous
Protocol: An MV4-11 cell tumor model was established by subcutaneous injection. Six-week-old female BALB/c nude mice were used for the subcutaneous model. […] Mice were sacrificed and tumor tissues were freshly dissected, homogenized, and centrifuged at 16000 g for 20 min. The phosphorylation levels of FLT3 were measured by Western blot.
(§3) Blue square and solid line represent intravenous injection administration. […] Mice were sacrificed at indicated time points and then tumor tissues were dissected and lysed. Phosphorylation levels of FLT3, STAT5 and ERK1/2 were measured by western blotting. (C) Bone marrow mononuclear cells (BMMCs) were isolated from healthy C57BL/6 mice. […] Apoptosis assays were conducted after 36-hour incubation. […] 24 h after the last administration, c-Kit^+ cells were evaluated by flow cytometry. […] Data were shown with mean±SD.

[11] = target: T4, JAK2 (Homo sapiens, UniProt O60674); test: Kinase inhibition assay (Reaction Biology); assay type: biochemical
T4 construct: purchased Reaction Biology Corporation (PA, USA)

[12] = target: FLT3 (ITD) (Homo sapiens, UniProt P36888, ITD); test: biochemical
[13] = target: T5, c-Src (Homo sapiens, UniProt P12931); test: Kinase inhibition assay (Reaction Biology); assay type: biochemical
T5 construct: purchased Reaction Biology Corporation (PA, USA)

[14] = system: bone marrow mononuclear cells (BMMCs); test: Apoptosis assay in normal bone marrow mononuclear cells; assay type: cell-based, C57BL/6 mice; details: 36 h
Protocol: as §3
Then, we evaluated progenitor cell (c-Kit^+) lineages of bone marrow cells (Figure 4D), spleen or liver weights (Figure S2A), relative body weights (Figure S2B), and parameters of blood routine examination (Figure S2C).

[15] = system: MV4-11 cells; test: Bone marrow engrafted model, survival; assay type: in vivo, NOD-SCID mice; details: MV4-11 bone marrow engraftment; LT-171-861 10 mg/kg every other day, sorafenib orally every day
Protocol: Six-week-old female NOD-SCID mice were treated with sub-lethal dose radiation (1.8 Gy) before intravenous injection of MV4-11 cells (5×10^6) or MOLM13 cells (5×10^6).
as §1
Mice that received vehicle treatment died within 30 days after intravenous injection of MV4-11 cells.

[16] = system: BaF3 cells with FLT3-ITD/N676D; test: Cell viability of transformed BaF3 cells; assay type: cell-based, murine; details: Mus musculus, read-out: BaF3 cells with FLT3 mutants IC50 ITD-N676D
Protocol: (§4) Lentivirus packaging and construction of transformed BaF3 cells were performed as described previously. […] Supernatants were collected and used to infect BaF3 cells, and transduced BaF3 cells were selected with puromycin (1 μg/ml) to obtain stably transformed cells.
as §2

[17] = system: BaF3 cells with FLT3-ITD/F691L; test: Cell viability of transformed BaF3 cells; assay type: cell-based, murine; details: Mus musculus, read-out: BaF3 cells with FLT3 mutants IC50 ITD-F691L
Protocol: as §4, §2

[18] = system: BaF3 cells with FLT3-ITD/Y842C; test: Cell viability of transformed BaF3 cells; assay type: cell-based, murine; details: Mus musculus, read-out: BaF3 cells with FLT3 mutants IC50 ITD-Y842C
Protocol: as §4, §2

[19] = system: AML patient blasts expressing FLT3-ITD; test: Viability of AML patient blasts (MTT); assay type: cell-based, human; details: 72 h, compared with AC220 and sorafenib

Sequence of FLT3 (ITD) (P36888 564-993, change not shown): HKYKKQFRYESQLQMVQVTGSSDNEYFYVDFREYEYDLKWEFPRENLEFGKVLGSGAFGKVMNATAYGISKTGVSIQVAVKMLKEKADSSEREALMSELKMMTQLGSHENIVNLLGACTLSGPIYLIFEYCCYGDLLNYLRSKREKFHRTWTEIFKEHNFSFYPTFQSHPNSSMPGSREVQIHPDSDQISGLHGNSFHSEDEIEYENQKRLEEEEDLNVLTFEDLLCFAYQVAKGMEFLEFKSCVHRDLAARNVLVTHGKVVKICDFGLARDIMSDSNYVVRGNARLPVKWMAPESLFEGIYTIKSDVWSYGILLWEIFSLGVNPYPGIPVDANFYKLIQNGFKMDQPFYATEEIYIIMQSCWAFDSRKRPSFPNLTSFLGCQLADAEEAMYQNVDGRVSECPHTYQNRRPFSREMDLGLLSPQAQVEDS
T2 sequence (P10721 26-976): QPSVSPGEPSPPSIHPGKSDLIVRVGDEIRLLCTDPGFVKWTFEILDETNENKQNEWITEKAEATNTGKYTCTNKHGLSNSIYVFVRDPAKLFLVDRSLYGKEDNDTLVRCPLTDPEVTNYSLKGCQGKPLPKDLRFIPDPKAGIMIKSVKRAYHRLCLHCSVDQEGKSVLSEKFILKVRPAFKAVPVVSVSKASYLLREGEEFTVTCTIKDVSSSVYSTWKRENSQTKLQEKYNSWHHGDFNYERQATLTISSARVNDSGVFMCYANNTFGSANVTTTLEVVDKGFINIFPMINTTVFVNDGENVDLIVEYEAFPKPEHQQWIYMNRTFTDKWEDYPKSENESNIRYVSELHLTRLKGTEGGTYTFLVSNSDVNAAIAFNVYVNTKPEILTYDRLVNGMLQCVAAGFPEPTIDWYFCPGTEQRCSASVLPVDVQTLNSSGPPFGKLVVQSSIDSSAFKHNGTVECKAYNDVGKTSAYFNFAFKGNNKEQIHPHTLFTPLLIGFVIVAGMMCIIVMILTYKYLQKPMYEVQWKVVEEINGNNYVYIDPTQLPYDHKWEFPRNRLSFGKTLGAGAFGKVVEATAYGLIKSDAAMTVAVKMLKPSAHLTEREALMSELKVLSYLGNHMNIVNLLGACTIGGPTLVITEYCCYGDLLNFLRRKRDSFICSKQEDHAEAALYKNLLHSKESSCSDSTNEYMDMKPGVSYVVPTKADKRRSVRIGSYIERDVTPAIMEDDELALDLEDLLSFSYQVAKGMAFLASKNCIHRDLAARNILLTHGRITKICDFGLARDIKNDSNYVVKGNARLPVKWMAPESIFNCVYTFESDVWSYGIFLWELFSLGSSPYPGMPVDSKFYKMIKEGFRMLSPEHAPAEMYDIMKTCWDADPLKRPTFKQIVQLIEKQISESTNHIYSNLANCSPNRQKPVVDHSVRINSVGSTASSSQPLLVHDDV
T1 sequence (P35916 25-1363): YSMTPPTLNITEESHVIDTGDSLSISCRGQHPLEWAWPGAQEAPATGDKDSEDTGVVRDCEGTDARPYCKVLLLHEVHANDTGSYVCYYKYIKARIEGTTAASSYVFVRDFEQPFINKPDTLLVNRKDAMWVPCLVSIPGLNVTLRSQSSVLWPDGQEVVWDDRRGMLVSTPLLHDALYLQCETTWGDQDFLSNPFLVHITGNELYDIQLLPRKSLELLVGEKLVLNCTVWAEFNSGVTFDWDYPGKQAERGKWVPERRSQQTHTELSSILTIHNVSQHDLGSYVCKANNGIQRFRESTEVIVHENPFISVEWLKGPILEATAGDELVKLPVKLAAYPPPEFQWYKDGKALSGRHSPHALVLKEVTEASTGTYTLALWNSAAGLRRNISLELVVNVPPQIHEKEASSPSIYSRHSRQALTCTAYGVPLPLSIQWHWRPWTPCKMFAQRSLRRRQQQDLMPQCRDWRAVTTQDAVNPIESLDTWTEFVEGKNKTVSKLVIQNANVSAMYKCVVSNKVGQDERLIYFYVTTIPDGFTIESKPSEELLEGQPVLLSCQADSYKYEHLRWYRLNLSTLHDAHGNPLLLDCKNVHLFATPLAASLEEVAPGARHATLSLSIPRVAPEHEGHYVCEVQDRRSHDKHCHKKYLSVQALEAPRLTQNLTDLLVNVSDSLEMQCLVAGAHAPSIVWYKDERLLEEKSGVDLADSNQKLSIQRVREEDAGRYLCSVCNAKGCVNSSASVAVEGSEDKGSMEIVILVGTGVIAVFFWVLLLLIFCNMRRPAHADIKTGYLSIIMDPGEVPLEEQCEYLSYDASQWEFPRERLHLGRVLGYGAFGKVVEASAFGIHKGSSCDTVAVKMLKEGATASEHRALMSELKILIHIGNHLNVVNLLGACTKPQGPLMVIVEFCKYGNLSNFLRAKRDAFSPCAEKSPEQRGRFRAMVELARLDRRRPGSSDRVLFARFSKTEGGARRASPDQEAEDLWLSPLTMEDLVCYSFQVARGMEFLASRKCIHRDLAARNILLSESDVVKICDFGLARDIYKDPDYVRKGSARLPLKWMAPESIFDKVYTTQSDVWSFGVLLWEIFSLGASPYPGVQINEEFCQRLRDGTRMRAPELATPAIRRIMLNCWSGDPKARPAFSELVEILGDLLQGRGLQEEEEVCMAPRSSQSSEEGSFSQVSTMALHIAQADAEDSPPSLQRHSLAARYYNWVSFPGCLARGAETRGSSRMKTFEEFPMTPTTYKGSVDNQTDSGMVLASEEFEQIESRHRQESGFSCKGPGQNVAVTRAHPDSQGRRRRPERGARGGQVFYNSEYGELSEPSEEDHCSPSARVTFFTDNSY
T3 sequence (P23458 whole entry): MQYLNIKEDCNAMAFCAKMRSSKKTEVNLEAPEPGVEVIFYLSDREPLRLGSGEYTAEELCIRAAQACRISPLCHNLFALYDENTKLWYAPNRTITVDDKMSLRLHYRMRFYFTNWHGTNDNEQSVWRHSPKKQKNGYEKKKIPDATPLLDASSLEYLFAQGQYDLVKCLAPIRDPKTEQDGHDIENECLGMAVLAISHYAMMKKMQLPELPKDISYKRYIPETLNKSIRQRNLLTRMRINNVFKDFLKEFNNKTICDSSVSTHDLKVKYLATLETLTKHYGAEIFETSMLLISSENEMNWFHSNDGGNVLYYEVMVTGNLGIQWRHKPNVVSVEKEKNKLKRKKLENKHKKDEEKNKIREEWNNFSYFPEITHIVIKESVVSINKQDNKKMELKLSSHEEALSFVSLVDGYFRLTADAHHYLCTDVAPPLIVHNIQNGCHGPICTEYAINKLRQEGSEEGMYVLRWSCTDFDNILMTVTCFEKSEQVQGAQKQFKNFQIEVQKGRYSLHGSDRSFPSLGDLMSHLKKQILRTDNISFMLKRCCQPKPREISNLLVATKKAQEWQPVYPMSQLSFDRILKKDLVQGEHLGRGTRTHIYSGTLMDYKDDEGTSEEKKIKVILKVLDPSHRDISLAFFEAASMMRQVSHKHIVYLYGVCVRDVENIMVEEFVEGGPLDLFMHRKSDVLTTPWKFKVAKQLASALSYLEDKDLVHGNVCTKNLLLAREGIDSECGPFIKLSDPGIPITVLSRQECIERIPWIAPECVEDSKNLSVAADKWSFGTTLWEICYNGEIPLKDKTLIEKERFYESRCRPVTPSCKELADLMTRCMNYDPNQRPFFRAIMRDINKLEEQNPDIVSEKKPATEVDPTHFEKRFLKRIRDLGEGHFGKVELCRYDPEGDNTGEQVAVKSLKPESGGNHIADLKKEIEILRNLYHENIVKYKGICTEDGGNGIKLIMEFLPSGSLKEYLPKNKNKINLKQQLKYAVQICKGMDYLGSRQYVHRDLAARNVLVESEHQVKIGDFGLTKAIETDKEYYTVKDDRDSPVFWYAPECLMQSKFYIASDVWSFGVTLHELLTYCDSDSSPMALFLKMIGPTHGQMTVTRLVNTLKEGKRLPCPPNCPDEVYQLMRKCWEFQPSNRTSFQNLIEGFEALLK
T4 sequence (O60674 whole entry): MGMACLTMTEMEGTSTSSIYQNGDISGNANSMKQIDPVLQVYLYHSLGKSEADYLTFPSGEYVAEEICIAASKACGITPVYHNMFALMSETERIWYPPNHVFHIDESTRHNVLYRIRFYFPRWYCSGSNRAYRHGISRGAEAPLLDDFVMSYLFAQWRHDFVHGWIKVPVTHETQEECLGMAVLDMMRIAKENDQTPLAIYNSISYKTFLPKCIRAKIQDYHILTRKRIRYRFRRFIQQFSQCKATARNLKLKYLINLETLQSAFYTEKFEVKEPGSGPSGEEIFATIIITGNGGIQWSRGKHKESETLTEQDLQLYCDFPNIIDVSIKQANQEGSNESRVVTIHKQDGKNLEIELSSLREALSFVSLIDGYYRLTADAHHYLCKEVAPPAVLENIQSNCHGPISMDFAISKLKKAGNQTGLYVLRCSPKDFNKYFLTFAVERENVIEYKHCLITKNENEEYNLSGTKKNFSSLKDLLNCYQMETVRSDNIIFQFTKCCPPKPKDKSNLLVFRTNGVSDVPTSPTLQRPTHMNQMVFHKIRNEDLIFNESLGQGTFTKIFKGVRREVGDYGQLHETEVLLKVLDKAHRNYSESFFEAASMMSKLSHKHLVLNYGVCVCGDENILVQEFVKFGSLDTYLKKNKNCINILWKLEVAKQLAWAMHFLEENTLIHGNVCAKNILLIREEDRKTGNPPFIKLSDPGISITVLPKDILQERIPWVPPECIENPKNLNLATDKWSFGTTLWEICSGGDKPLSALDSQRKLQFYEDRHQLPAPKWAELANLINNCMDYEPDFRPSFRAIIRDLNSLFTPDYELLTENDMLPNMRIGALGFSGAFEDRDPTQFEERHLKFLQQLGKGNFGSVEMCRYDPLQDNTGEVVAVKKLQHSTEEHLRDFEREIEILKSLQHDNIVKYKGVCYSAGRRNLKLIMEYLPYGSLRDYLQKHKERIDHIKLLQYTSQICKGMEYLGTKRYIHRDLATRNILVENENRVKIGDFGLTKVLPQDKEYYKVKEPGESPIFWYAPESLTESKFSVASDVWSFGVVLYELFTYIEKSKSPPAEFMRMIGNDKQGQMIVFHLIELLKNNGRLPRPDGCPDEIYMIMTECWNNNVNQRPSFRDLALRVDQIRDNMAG

Structure (SMILES): CN1CCN(Cc2ccc(NC(=O)c3n[nH]cc3Nc3ncnc4[nH]ccc34)cc2)CC1 [LT-171-861]
- IC50 [1]: 1.24 nM
- tumor growth [2]: inhibited tumor growth
- IC50 [3]: > 200 nM
- IC50 ([3]; 10 μM ATP, 10-dose IC50 mode): 1810 nM
- tumor growth in xenograft models ([4]; 10 mg/kg intravenous every two days, 20 or 24-day treatment): complete tumor regression was achieved
- bodyweight during dosing ([4]; MV4-11 cell line xenograft model): no significant weight suppression
- H&E staining in liver, heart, spleen, lung and kidney ([4]; MV4-11 cell line xenograft model, end of experiment): no significant damage
- tumor regrowth after dosing was halted ([4]; monitored for an additional 20 days): No tumor regrowth was observed
- IC50 [5]: 504 nM
- IC50 [6]: 1.3 nM
- IC50 [7]: 1.8 nM
- IC50 [8]: 495 nM
- IC50 [9]: 55 nM
- duration of inhibition of FLT3 autophosphorylation and downstream effectors [10]: 24 h
- inhibition of p-FLT3, p-STAT5 and p-ERK1/2 in tumor ([10]; western blot): sustained inhibition
- IC50 [11]: 33.8 nM
- IC50 [12]: < 1 nM
- IC50 ([12]; 10 μM ATP, 10-dose IC50 mode): 0.718 nM
- IC50 [13]: 72 nM
- toxicity in normal BMMCs [14]: hypotoxicity
- survival versus vehicle [15]: increased survival rates
- IC50 [16]: 47.5 nM
- IC50 [17]: 7.65 nM
- IC50 [18]: 18.8 nM
- antileukemic activity in blasts with FLT3-ITD mutations [19]: comparable antileukemic activity
